Results as given in patent US8741934B2, “Inhibitors of ion channels” (Pfizer Limited, priority 2007, dated 2014).

What follows are compounds tested against T1, hSCN3A sodium channels (Homo sapiens, UniProt Q9NY46) (assay: hSCN3A electrophysiology, whole-cell patch-clamp or PatchXpress 7000, estimated IC-50 (Table B)). Settings: not given.
T1 construct: expressed in transfected cells
Assay type: cell-based
Outline: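 Stably transfected HEK cells, whole-cell voltage clamp at 22-24° C, manual or PatchXpress 7000. Cells held at empirically determined inactivation V1/2; current evoked by 20 msec step to 0 mV after 8 sec prepulse to V1/2.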

T1 sequence (Q9NY46 whole entry): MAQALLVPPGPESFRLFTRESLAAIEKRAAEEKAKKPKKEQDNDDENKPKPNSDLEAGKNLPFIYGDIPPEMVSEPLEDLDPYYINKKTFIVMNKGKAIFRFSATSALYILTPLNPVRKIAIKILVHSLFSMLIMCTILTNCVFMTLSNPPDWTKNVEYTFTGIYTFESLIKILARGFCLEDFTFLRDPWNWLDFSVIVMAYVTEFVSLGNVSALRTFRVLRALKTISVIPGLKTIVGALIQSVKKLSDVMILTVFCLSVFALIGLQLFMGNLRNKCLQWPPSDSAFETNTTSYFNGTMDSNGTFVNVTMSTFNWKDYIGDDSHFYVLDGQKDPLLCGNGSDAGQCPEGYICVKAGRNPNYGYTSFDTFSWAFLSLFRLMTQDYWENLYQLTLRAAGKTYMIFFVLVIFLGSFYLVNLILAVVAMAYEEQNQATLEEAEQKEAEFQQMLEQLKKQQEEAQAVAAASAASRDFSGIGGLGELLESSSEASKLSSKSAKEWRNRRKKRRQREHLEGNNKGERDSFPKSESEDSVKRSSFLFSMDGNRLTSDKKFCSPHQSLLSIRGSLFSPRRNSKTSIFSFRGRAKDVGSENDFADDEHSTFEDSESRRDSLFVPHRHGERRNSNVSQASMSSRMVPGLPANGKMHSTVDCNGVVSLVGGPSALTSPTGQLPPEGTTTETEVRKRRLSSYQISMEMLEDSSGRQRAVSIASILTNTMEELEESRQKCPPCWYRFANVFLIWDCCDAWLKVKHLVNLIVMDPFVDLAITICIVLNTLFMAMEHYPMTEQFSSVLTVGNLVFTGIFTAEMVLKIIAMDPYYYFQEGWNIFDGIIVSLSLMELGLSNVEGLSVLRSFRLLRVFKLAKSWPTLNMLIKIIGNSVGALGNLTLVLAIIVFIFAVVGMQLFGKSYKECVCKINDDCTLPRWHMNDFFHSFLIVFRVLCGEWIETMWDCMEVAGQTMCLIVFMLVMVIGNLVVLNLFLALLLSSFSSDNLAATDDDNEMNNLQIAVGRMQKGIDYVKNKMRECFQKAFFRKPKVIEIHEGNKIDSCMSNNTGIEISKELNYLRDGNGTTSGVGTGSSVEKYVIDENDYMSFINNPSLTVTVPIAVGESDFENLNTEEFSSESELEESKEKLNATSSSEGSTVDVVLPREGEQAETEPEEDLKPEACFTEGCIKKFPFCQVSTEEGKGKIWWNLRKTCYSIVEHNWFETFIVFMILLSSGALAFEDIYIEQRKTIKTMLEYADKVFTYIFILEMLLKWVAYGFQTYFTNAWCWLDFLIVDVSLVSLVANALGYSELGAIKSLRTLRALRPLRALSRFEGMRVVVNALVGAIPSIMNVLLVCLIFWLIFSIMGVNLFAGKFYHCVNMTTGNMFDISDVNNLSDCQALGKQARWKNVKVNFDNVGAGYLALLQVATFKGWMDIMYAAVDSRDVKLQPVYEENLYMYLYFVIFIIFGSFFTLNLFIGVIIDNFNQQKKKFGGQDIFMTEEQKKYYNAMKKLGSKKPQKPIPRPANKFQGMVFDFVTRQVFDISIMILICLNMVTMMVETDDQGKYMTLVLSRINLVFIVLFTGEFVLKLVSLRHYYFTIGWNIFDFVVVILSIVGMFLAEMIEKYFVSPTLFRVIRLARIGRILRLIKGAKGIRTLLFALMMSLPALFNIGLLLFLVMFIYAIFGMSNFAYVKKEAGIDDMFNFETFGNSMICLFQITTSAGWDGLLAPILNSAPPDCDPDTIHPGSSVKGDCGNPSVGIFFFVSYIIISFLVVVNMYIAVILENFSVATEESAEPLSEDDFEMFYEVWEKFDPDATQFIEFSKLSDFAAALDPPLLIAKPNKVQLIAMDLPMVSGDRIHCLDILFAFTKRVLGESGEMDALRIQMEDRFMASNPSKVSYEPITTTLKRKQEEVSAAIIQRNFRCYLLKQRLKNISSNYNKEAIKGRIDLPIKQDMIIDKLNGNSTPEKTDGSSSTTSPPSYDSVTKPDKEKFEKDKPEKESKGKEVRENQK

| Compound | IC50 [nM] |
| --- | --- |
| O=C(NCc1ccc(C(F)(F)F)cc1)c1cccc(S(=O)(=O)Nc2nncs2)c1 [Example 350, 3-[(1,3,4-Thiadiazol-2-ylamino)sulfonyl]-N-[4-(trifluoromethyl)benzyl]benzamide] | > 10000 |

Same assay, conditions: estimated IC-50; hSCN3A cells, whole-cell patch-clamp or PatchXpress 7000; read-out: SCN3A EIC-50

| Compound | IC50 [nM] |
| --- | --- |
| O=C(NCc1ccc(F)c(Cl)c1)c1ccc(S(=O)(=O)Nc2nccs2)cc1 [Example 401, N-(3-chloro-4-fluorobenzyl)-4-[(1,3-thiazol-2-ylamino)sulfonyl] benzamide] | 170 |
| CN(Cc1ccc(C(F)(F)F)cc1)C(=O)c1ccc(S(=O)(=O)Nc2ncc(Cl)s2)cc1 [Example 41, 4-{[(5-Chloro-1,3-thiazol-2-yl)amino]sulfonyl}-N-methyl-N-[4-(trifluoromethyl)benzyl]benzamide] | 2350 |
| O=C(NCc1cccc(-c2ccccc2)c1)c1ccc(S(=O)(=O)Nc2nccs2)cc1 [Example 411, N-(biphenyl-3-ylmethyl)-4-[(1,3-thiazol-2-ylamino)sulfonyl] benzamide] | 120 |
| Cn1ccc(NS(=O)(=O)c2ccc(C(=O)NCc3ccc(C(F)(F)F)cc3)cc2)n1 [Example 2, 4-{[(1-Methyl-1H-pyrazol-3-yl)amino]sulfonyl}-N-[4-(trifluoromethyl)benzyl]benzamide] | > 1000 |
| O=C(NCc1ccc(C(F)(F)F)cc1F)c1ccc(S(=O)(=O)Nc2nccs2)cc1 [Example 397, N-[2-fluoro-4-(trifluoromethyl)benzyl]-4-[(1,3-thiazol-2-ylamino)sulfonyl] benzamide] | 220 |
| O=C(NCc1ccc(C(F)(F)F)c(Cl)c1)c1ccc(S(=O)(=O)Nc2ncns2)c(F)c1 [Example 317, N-[3-chloro-4-(trifluoromethyl)benzyl]-3-fluoro-4-[(1,2,4-thiadiazol-5-ylamino)sulfonyl]benzamide] | 40 |
| O=C(NCc1ccc(C(F)(F)F)c(F)c1)c1ccc(S(=O)(=O)Nc2ncc(Cl)s2)c(Cl)c1 [Example 366, 3-Chloro-4-{[(5-chloro-1,3-thiazol-2-yl)amino]sulfonyl}-N-[3-fluoro-4-(trifluoromethyl)benzyl] benzamide] | 730 |
| Cc1ccc(Cl)cc1CNC(=O)c1ccc(S(=O)(=O)Nc2nccs2)cc1 [Example 64, N-(5-chloro-2-methylbenzyl)-4-[(1,3-thiazol-2-ylamino)sulfonyl]benzamide] | 450 |
| CC(NC(=O)c1ccc(S(=O)(=O)Nc2ncns2)cc1)c1ccc(C(F)(F)F)cc1 (stereo not shown) [Example 322, 4-[(1,2,4-Thiadiazol-5-ylamino)sulfonyl]-N-{1-[4-(trifluoromethyl)phenyl]ethyl}benzamide] | 340 |
| O=C(NCc1ccc(OC(F)(F)F)c(F)c1)c1ccc(S(=O)(=O)Nc2ncc(Cl)s2)cc1F [Example 359, 4-{[(5-Chloro-1,3-thiazol-2-yl)amino]sulfonyl}-2-fluoro-N-[3-fluoro-4-(trifluoromethoxy)benzyl]benzamide] | 170 |
| O=C(NCc1ccc(F)c(F)c1)c1ccc(S(=O)(=O)Nc2ncc(Cl)s2)c(F)c1 [Example 312, 4-{[(5-Chloro-1,3-thiazol-2-yl)amino]sulfonyl}-N-(3,4-difluorobenzyl)-3-fluorobenzamide] | 140 |
| O=C(NCc1cc(C(F)(F)F)ccc1Cl)c1ccc(S(=O)(=O)Nc2nccs2)cc1 [Example 120, N-[2-chloro-5-(trifluoromethyl)benzyl]-4-[(1,3-thiazol-2-ylamino)sulfonyl]benzamide] | 500 |
| O=C(NCc1ccc(F)c(OC(F)(F)F)c1)c1ccc(S(=O)(=O)Nc2nccs2)cc1F [Example 331, 2-Fluoro-N-[4-fluoro-3-(trifluoromethoxy)benzyl]-4-[(1,3-thiazol-2-ylamino)sulfonyl] benzamide] | 900 |
| O=C(NCc1ccc(C(F)(F)F)c(Cl)c1)c1ccc(S(=O)(=O)Nc2ncns2)cc1Cl [Example 374, 2-Chloro-N-[3-chloro-4-(trifluoromethyl)benzyl]-4-[(1,2,4-thiadiazol-5-ylamino)sulfonyl]benzamide] | 230 |
| C[C@H]1CN(C(=O)c2ccc(S(=O)(=O)Nc3nccs3)cc2)C[C@@H]1COc1ccccc1 [Example 49, 4-{[(3R,4R)-3-methyl-4-(phenoxymethyl)pyrrolidin-1-yl]carbonyl}-N-1,3-thiazol-2-ylbenzenesulfonamide] | 1150 |
| O=C(NCc1ccc(OC(F)(F)F)c(F)c1)c1ccc(S(=O)(=O)Nc2ncc(Cl)s2)cc1Cl [Example 337, 2-Chloro-4-{[(5-chloro-1,3-thiazol-2-yl)amino]sulfonyl}-N-[3-fluoro-4-(trifluoromethoxy)benzyl]benzamide] | 390 |
| O=C(c1ccc(S(=O)(=O)Nc2nccs2)cc1)N1CC[C@H](Oc2ccccc2Cl)C1 [Example 200, 4-{[(3S)-3-(2-chlorophenoxy)pyrrolidin-1-yl]carbonyl}-N-1,3-thiazol-2-yl-benzenesulfonamide] | 3600 |

| Compound | IC50 [nM] |
| --- | --- |
| O=C(NCc1ccc(C(F)(F)F)c(F)c1)c1ccc(S(=O)(=O)Nc2ncns2)cc1Cl [Example 375, 2-Chloro-N-[3-fluoro-4-(trifluoromethyl)benzyl]-4-[(1,2,4-thiadiazol-5-ylamino)sulfonyl]benzamide] | 450 |
| O=C(NCc1ccc(C(F)(F)F)cc1)c1ccc(S(=O)(=O)Nc2ncns2)cc1 [Example 20, 4-[(1,2,4-Thiadiazol-5-ylamino)sulfonyl]-N-[4-(trifluoromethyl)benzyl]benzamide] | 260 |
| CC(C)(NC(=O)c1ccc(S(=O)(=O)Nc2nccs2)cc1)c1cccc(C(F)(F)F)c1 [Example 125, N-{1-methyl-1-[3-(trifluoromethyl)phenyl]ethyl}-4-[(1,3-thiazol-2-ylamino)sulfonyl]benzamide] | 6450 |
| O=C(Nc1nccc2ccccc12)c1ccc(S(=O)(=O)Nc2nccs2)cc1 [Example 117, N-isoquinolin-1-yl-4-[(1,3-thiazol-2-ylamino)sulfonyl]benzamide] | 12700 |
| O=C(NCc1ccc(Cl)cc1F)c1ccc(S(=O)(=O)Nc2nccs2)cc1 [Example 93, N-(4-chloro-2-fluorobenzyl)-4-[(1,3-thiazol-2-ylamino)sulfonyl]benzamide] | 460 |
| O=C(NCc1ccc(C(F)(F)F)cc1)c1ccc(S(=O)(=O)Nc2ncc(Cl)s2)cc1Cl [Example 338, 2-Chloro-4-{[(5-chloro-1,3-thiazol-2-yl)amino]sulfonyl}-N-[4-(trifluoromethyl)benzyl] benzamide] | 1070 |
| O=C(NCc1ccc(F)c(C(F)(F)F)c1)c1ccc(S(=O)(=O)Nc2ncc(Cl)s2)c(F)c1 [Example 316, 4-{[(5-Chloro-1,3-thiazol-2-yl)amino]sulfonyl}-3-fluoro-N-[4-fluoro-3-(trifluoromethyl)benzyl] benzamide] | 140 |
| O=C(NCc1cccc(C(F)(F)F)c1)c1ccc(S(=O)(=O)Nc2nccs2)cc1 [Example 398, 4-[(1,3-Thiazol-2-ylamino)sulfonyl]-N-[3-(trifluoromethyl)benzyl] benzamide] | 260 |
| O=C(NCc1ccc(C(F)(F)F)cc1)c1ccc(S(=O)(=O)Nc2nc(C(F)(F)F)cs2)cc1 [Example 4, N-[4-(Trifluoromethyl)benzyl]-4-({[4-(trifluoromethyl)-1,3-thiazol-2-yl]amino}sulfonyl)benzamide] | 2530 |
| O=C(NCc1ccc(F)c(OC(F)(F)F)c1)c1ccc(S(=O)(=O)Nc2ncc(Cl)s2)cc1F [Example 358, 4-{[(5-Chloro-1,3-thiazol-2-yl)amino]sulfonyl}-2-fluoro-N-[4-fluoro-3-(trifluoromethoxy)benzyl]benzamide] | 370 |
| COc1ccccc1CC1CCCN(C(=O)c2ccc(S(=O)(=O)Nc3nccs3)cc2)C1 (stereo not shown) [Example 196, 4-{[3-(2-Methoxybenzyl)piperidin-1-yl]carbonyl}-N-1,3-thiazol-2-yl-benzenesulfonamide] | > 1000 |
| O=C(c1ccc(S(=O)(=O)Nc2nccs2)cc1)N1CCSCC1c1ccccc1Cl (stereo not shown) [Example 46, 4-{[3-(2-Chlorophenyl)thiomorpholin-4-yl]carbonyl}-N-1,3-thiazol-2-ylbenzenesulfonamide] | 1550 |
| CCc1nsc(NS(=O)(=O)c2ccc(C(=O)NCc3ccc(C(F)(F)F)cc3)cc2)n1 [Example 19, 4-{[(3-Ethyl-1,2,4-thiadiazol-5-yl)amino]sulfonyl}-N-[4-(trifluoromethyl)benzyl]benzamide] | 13800 |
| COc1ccccc1C1CN(C(=O)c2ccc(S(=O)(=O)Nc3nccs3)cc2)CCO1 (stereo not shown) [Example 232, 4-{[2-(2-Methoxyphenyl)morpholin-4-yl]carbonyl}-N-1,3-thiazol-2-yl-benzenesulfonamide] | 3420 |
| Cc1ccc(OC2CCCN(C(=O)c3ccc(S(=O)(=O)Nc4nccs4)cc3)C2)cc1 (stereo not shown) [Example 249, 4-{[3-(4-mMethylphenoxy)piperidin-1-yl]carbonyl}-N-1,3-thiazol-2-yl-benzenesulfonamide] | 1660 |
| O=C(NCc1ccc(F)c(C(F)(F)F)c1)c1ccc(S(=O)(=O)Nc2ncc(Cl)s2)cc1 [Example 34, 4-{[(5-Chloro-1,3-thiazol-2-yl)amino]sulfonyl}-N-[4-fluoro-3-(trifluoromethyl)benzyl]benzamide] | 90 |
| O=C(c1ccc(S(=O)(=O)Nc2nccs2)cc1)N1CCCC(Oc2ccccc2)C1 (stereo not shown) [Example 277, 4-[(3-Phenoxypiperidin-1-yl)carbonyl]-N-1,3-thiazol-2-yl-benzenesulfonamide] | 2190 |

Same assay, conditions: read-out: SCN3A EIC-50

| Compound | IC50 [nM] |
| --- | --- |
| O=C(NCc1ccc(C(F)(F)F)c(Cl)c1)c1ccc(S(=O)(=O)Nc2ncc(Cl)s2)cn1 [Example 346, 5-{[(5-Chloro-1,3-thiazol-2-yl)amino]sulfonyl}-N-[3-chloro-4-(trifluoromethyl)benzyl] pyridine-2-carboxamide] | 70 |
| O=C(NCc1ccc(C(F)(F)F)c(F)c1)c1ccc(S(=O)(=O)Nc2ncc(Cl)s2)cn1 [Example 345, 5-{[(5-Chloro-1,3-thiazol-2-yl)amino]sulfonyl}-N-[3-fluoro-4-(trifluoromethyl)benzyl] pyridine-2-carboxamide] | 270 |
